Assay results published in patent US20110015191A1, “ORGANIC COMPOUNDS” (SANDOZ AG, priority 2007, published 2011).
In brackets after ≈: the same amount, converted by molar mass.

What was measured:
[1] = Conversion of the methanol solvate on drying; format: physicochemical
Text: In another embodiment the invention relates to a novel methanol solvate of Aprepitant. The methanol solvate is useful for the purification of Aprepitant.

[2] = heated to 230° C. under a nitrogen atmosphere; cited from earlier work
[3] = cited from earlier work

SMILES | conversion of solid form on drying [1] | conversion of polymorphic form on heating [2] | solubility in a methanol/water mixture (2:1) [3]
CO.C[C@@H](O[C@H]1OCCN(Cc2nc(=O)[nH][nH]2)[C@H]1c1ccc(F)cc1)c1cc(C(F)(F)F)cc(C(F)(F)F)c1 [methanol solvate, Methanol solvate of 2-(R)-(1-(R)-(3,5)-bis(trifluoromethyl)-phenyl)ethoxy)-3-(S)-(4-fluoro)phenyl-4-(3-(5-oxo-1H,4H-1,2,4-triazolo)methylmorpholine] | converts to form I of Aprepitant on drying | – | –
C[C@@H](O[C@H]1OCCN(Cc2nc(=O)[nH][nH]2)[C@H]1c1ccc(F)cc1)c1cc(C(F)(F)F)cc(C(F)(F)F)c1 [Form II of Aprepitant, 2-(R)-(1-(R)-(3,5)-bis(trifluoromethyl)-phenyl)ethoxy)-3-(S)-(4-fluoro)phenyl-4-(3-(5-oxo-1H,4H-1,2,4-triazolo)methylmorpholine] | – | converts to form I | about 1.3±0.2 mg/ml
C[C@@H](O[C@H]1OCCN(Cc2nc(=O)[nH][nH]2)[C@H]1c1ccc(F)cc1)c1cc(C(F)(F)F)cc(C(F)(F)F)c1 [form I, 2-(R)-(1-(R)-(3,5)-bis(trifluoromethyl)-phenyl)ethoxy)-3-(S)-(4-fluoro)phenyl-4-(3-(5-oxo-1H,4H-1,2,4-triazolo)methylmorpholine] | – | – | 900 ± 100 µg/mL (≈ 1680 µM)
